Measurements as given in patent publication US20240376073A1 (Hoffmann-La Roche Inc., priority 2021, published 2024).
Where a name gives a salt, the structure may show the parent alone.

Tested on: Acinetobacter baumannii ATCC17961
Assay: Antimicrobial susceptibility testing: 90% growth inhibitory concentration (IC90) determination
Type: cell-based
Details: Acinetobacter baumannii ATCC17961; Iso-Sensitest broth; growth by OD 600 nm over 16 h; 35±2° C.; read-out: ATCC 17961 IC90
Outline: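 Twofold serial dilutions (e.g. 50 to 0.097 μM final) in Iso-Sensitest broth, inoculated at ~5×10^(5) CFU/ml, incubated at 35±2° C. OD600 read every 20 min over 16 h; IC90 derived from growth inhibition during logarithmic growth.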

| SMILES | IC90 |
| --- | --- |
| CCc1cc(NC(=O)c2ncc(-c3ccc(OC(F)F)c(F)c3F)n2C)ccc1C(=O)N1CCN(C(=O)C2CC[N+](C)(CC3CCNCC3)CC2)CC1 (stereo not shown) [Example C20, 5-[4-(difluoro-methoxy)-2,3-difluoro-phenyl]-N-[3-ethyl-4-[4-[1-methyl-1-(4-piperidylmethyl)-piperidin-1-ium-4-carbonyl]-piperazine-1-carbonyl]phenyl]-1-methyl-imid-azole-2-carbox-amide; 2,2,2-trifluoroacetate; 2,2,2-trifluoro-acetic acid] | 80 nM |
| CCc1cc(NC(=O)c2ncc(-c3ccc(OC(F)F)c(F)c3F)n2C)ccc1C(=O)N1CCN(C(=O)C2CC[N+](CC(N)=O)(CC3CNC3)CC2)CC1 (stereo not shown) [Example C21] | 220 nM |
| Cn1c(-c2ccc(OC(F)F)c(F)c2F)cnc1C(=O)Nc1ccc(C(=O)N2CCN(C(=O)C[N+]3(C)CCC(C(N)=O)C3)CC2)c(Cl)c1 (stereo not shown) [Example C26, N-[4-[4-[2-(3-carbamoyl-1-methyl-pyrrolidin-1-ium-1-yl)acet-yl]piperazine-1-carbonyl]-3-chloro-phenyl]-5-[4-(difluorometh-oxy)-2,3-difluoro-phenyl]-1-methyl-imidazole-2-carboxamide; formate] | 69 nM |
| Cn1c(-c2ccc(OC(F)F)c(F)c2F)cnc1C(=O)Nc1ccc(C(=O)N2CCN(C(=O)C3CC[N+](C)(CC(=O)O)CC3)CC2)c(Cl)c1 (stereo not shown) [Example C31, 2-[4-[4-[2-chloro-4-[[5-[4-(difluorometh-oxy)-2,3-difluoro-phen-yl]-1-methyl-imidazole-2-carbonyl]amino]-benzoyl]piper-azine-1-carbon-yl]-1-methyl-piperidin-1-ium-1-yl]acetic acid; 2,2,2-trifluoro-acetate] | 410 nM |
| Cn1c(-c2ccc(OC(F)F)c(F)c2F)cnc1C(=O)Nc1ccc(C(=O)N2CCN(C(=O)C3CC[N+](C)(CC4CNC4)CC3)CC2)c(F)c1 (stereo not shown) [Example C42, N-[4-[4-[1-(azet-idin-3-ylmethyl)-1-methyl-piper-idin-1-ium-4-carbonyl]piper-azine-1-carbon-yl]-3-fluoro-phenyl]-5-[4-(difluorometh-oxy)-2,3-difluoro-phenyl]-1-methyl-imidazole-2-car-boxamide; 2,2,2-trifluoroacetate; 2,2,2-trifluoro-acetic acid] | 100 nM |

More lines, now with the values ahead:

| IC90 | SMILES |
| --- | --- |
| 230 nM | COc1ccc(-c2cnc(C(=O)Nc3ccc(C(=O)NCc4cnn(CC5C[N+](C)(C)C5)c4)c(Cl)c3)n2C)c(F)c1F [Example C22, N-[3-chloro-4-[[1-[(1,1-dimethylazetidin-1-ium-3-yl)methyl]pyrazol-4-yl]methylcarbamoyl]phenyl]-5-(2,3-difluoro-4-methoxy-phenyl)-1-methyl-imidazole-2-carboxamide;formate] |
| 76 nM | COc1ccc(-c2cnc(C(=O)Nc3ccc(C(=O)NCc4c[n+](C)c(NC(=O)C[N+](C)(C)C)s4)c(Cl)c3)n2C)c(F)c1F [Example C23, [2-[[5-[[[2-chloro-4-[[5-(2,3-difluoro-4-methoxy-phenyl)-1-methyl-imidazole-2-carbonyl]amino]benzoyl]amino]methyl]-3-methyl-thiazol-3-ium-2-yl]amino]-2-oxo-ethyl]-trimethyl-ammonium;formate] |
| 43 nM | Cn1c(-c2ccc(OC(F)F)c(F)c2F)cnc1C(=O)Nc1ccc(C(=O)N2CCN(C(=O)C[N+]3(C)CCCC3)CC2)c(Cl)c1 [Example C25, N-[3-chloro-4-[4-[2-(1-methyl-pyrrolidin-1-ium-1-yl)acetyl]piper-azine-1-carbonyl]-phenyl]-5-[4-(difluorometh-oxy)-2,3-difluoro-phenyl]-1-methyl-imidazole-2-carboxamide; formate] |
| 120 nM | COc1ccc(-c2cnc(C(=O)Nc3ccc(C(=O)N4CCN(C(=O)C[N+]5(C)CCOCC5)CC4)c(Cl)c3)n2C)c(F)c1F [Example C27, N-[3-chloro-4-[4-[2-(4-methyl-morpholin-4-ium-4-yl)acetyl]-piperazine-1-carbonyl]phenyl]-5-(2,3-difluoro-4-methoxy-phenyl)-1-methyl-imid-azole-2-carbox-amide; formate] |
| 130 nM | COc1ccc(-c2cnc(C(=O)Nc3ccc(C(=O)N4CCN(C(=O)C[N+]5(C)CCCC5)CC4)c(Cl)c3)n2C)c(F)c1F [Example C28, N-[3-chloro-4-[4-[2-(1-methylpyr-rolidin-1-ium-1-yl)acetyl]piper-azine-1-carbonyl]-phenyl]-5-(2,3-difluoro-4-meth-oxy-phenyl)-1-methyl-imidazole-2-carboxamide; formate] |
| 100 nM | COc1ccc(-c2cnc(C(=O)Nc3ccc(C(=O)N4CCN(C(=O)C[N+]5(C)CCC(O)C5)CC4)c(Cl)c3)n2C)c(F)c1F (stereo not shown) [Example C29, N-[3-chloro-4-[4-[2-(3-hydroxy-1-methyl-pyrrolidin-1-ium-1-yl)acet-yl]piperazine-1-carbonyl]phenyl]-5-(2,3-difluoro-4-methoxy-phenyl)-1-methyl-imid-azole-2-carbox-amide; formate] |
| 570 nM | COc1ccc(-c2cnc(C(=O)Nc3ccc(C(=O)N4CCN(C(=O)CCC[N+](CCCN)(CCCN)CC(=O)O)CC4)c(Cl)c3)n2C)c(F)c1F [Example C34, bis(3-aminopropyl)-(carboxymethyl)-[4-[4-[2-chloro-4-[[5-(2,3-difluoro-4-methoxy-phenyl)-1-methyl-imidazole-2-carbonyl]amino]benzoyl]piperazin-1-yl]-4-oxo-butyl]ammonium; formate] |
| 290 nM | COc1ccc(-c2cnc(C(=O)Nc3ccc(C(=O)N4CCC(NC(=O)[C@@H]5C[C@@H](O)C[N+]5(C)C)CC4)c(Cl)c3)n2C)c(F)c1F [Example C43, N-[3-chloro-4-[4-[[(2S,4R)-4-hydroxy-1,1-dimethyl-pyrrolidin-1-ium-2-carbonyl]amino]piperidine-1-carbonyl]phenyl]-5-(2,3-difluoro-4-methoxy-phenyl)-1-methyl-imidazole-2-carboxamide;formate] |

Same assay, conditions: Acinetobacter baumannii, ATCC17961, 16 h, read-out: ATCC 17961 IC90, Acinetobacter baumannii ATCC17961; Iso-Sensitest broth; growth by OD 600 nm over 16 h; 35±2° C.

| SMILES | IC90 |
| --- | --- |
| Cn1c(-c2ccc(OC(F)F)c(F)c2F)cnc1C(=O)Nc1ccc(C(=O)N2CCN(C(=O)C[N+]3(C)CCNCC3)CC2)c(Cl)c1 [Example C24, N-[3-chloro-4-[4-[2-(1-methylpiperazin-1-ium-1-yl)acetyl]piperazine-1-carbonyl]phenyl]-5-[4-(difluoromethoxy)-2,3-difluoro-phenyl]-1-methyl-imidazole-2-carboxamide;2,2,2-trifluoroacetate;2,2,2-trifluoroacetic acid] | 63 nM |
| COc1ccc(-c2cnc(C(=O)Nc3ccc(C(=O)N4CCN(C(=O)C5CC[N+](CCCN)(CC(=O)O)CC5)CC4)c(Cl)c3)n2C)c(F)c1F (stereo not shown) [Example C32, 2-[1-(3-aminopropyl)-4-[4-[2-chloro-4-[[5-(2,3-difluoro-4-methoxy-phenyl)-1-methyl-imidazole-2-carbonyl]amino]benzoyl]piperazine-1-carbonyl]piperidin-1-ium-1-yl]acetic acid; formate] | 810 nM |
| COc1ccc(-c2cnc(C(=O)Nc3ccc(C(=O)N4CCN(C(=O)C5CC[N+](CC(=O)O)(CC6CNC6)CC5)CC4)c(Cl)c3)n2C)c(F)c1F (stereo not shown) [Example C33, 2-[1-(azetidin-3-ylmethyl)-4-[4-[2-chloro-4-[[5-(2,3-difluoro-4-methoxy-phenyl)-1-methyl-imidazole-2-carbonyl]amino]benzoyl]piperazine-1-carbonyl]piperidin-1-ium-1-yl]acetic acid; formate] | 490 nM |
| COc1ccc(-c2cnc(C(=O)Nc3ccc(C(=O)N4CCN(C(=O)CCC[N+](C)(CCCN)CC(=O)O)CC4)c(Cl)c3)n2C)c(F)c1F (stereo not shown) [Example C35, 3-aminopropyl-(carboxymethyl)-[4-[4-[2-chloro-4-[[5-(2,3-difluoro-4-methoxy-phenyl)-1-methyl-imidazole-2-carbonyl]amino]beuzoyl]piperazin-1-yl]-4-oxo-butyl]-methyl-ammonium formate] | 510 nM |
| COc1ccc(-c2cnc(C(=O)Nc3ccc(C(=O)N4CCN(C(=O)N5CC[N+](C)(CC(=O)O)CC5)CC4)c(Cl)c3)n2C)c(F)c1F [Example C36, 2-[4-[4-[2-chloro-4-[[5-(2,3-difluoro-4-methoxy-phenyl)-1-methyl-imidazole-2-carbonyl]amino]benzoyl]piperazine-1-carbonyl]-1-methyl-piperazin-1-ium-1-yl]acetic acid formate] | 1100 nM |
| COc1ccc(-c2cnc(C(=O)Nc3ccc(C(=O)N4CCN(C(=O)N5C[C@@H]6C[N+](CCCN)(CC(=O)O)C[C@@H]6C5)CC4)c(Cl)c3)n2C)c(F)c1F (stereo partly shown) [Example C37, hydrochloride] | 340 nM |
| COc1ccc(-c2cnc(C(=O)Nc3ccc(C(=O)N4CCN(C(=O)N5CC[N+](CCCN)(CC(=O)O)CC5)CC4)c(Cl)c3)n2C)c(F)c1F [Example C38, 2-[1-(3-aminopropyl)-4-[4-[2-chloro-4-[[5-(2,3-difluoro-4-methoxy-phenyl)-1-methyl-imidazole-2-carbonyl]amino]benzoyl]piperazine-1-carbonyl]piperazin-1-ium-1-yl]acetic acid formate] | 730 nM |
| COc1ccc(-c2cnc(C(=O)Nc3ccc(C(=O)N4CCN(C(=O)C5CC[N+](CC(=O)O)(CC6CNC6)CC5)CC4)c(Cl)c3)n2C)c(Cl)c1F (stereo not shown) [Example C40, 2-[1-(azetidin-3-ylmethyl)-4-[4-[2-chloro-4-[[5-(2-chloro-3-fluoro-4-methoxy-phenyl)-1-methyl-imidazole-2-carbonyl]amino]benzoyl]piperazine-1-carbonyl]piperidin-1-ium-1-yl]acetic acid; formate] | 540 nM |
| Cn1c(-c2ccc(OCF)c(F)c2Cl)cnc1C(=O)Nc1ccc(C(=O)N2CCN(C(=O)C3CC[N+](CC(=O)O)(CC4CNC4)CC3)CC2)c(Cl)c1 (stereo not shown) [Example C41, 2-[1-(azetidin-3-ylmethyl)-4-[4-[2-chloro-4-[[5-[2-chloro-3-fluoro-4-(fluoromethoxy)phenyl]-1-methyl-imidazole-2-carbonyl]amino]benzoyl]piperazine-1-carbonyl]piperidin-1-ium-1-yl]acetic acid formate] | 480 nM |
